# Source: patent US20200383961A1, “TRIPLET THERAPIES OF HDAC INHIBITORS, PD-L1 AND/OR PD-1 INHIBITORS, AND CTLA-4 INHIBITORS” (HUYA Bioscience International, LLC, priority 2019, published 2020)
# Read-outs that look alike come from different tables or passages of the source.
# Legend:
# RR/PTCL = conditions: historical benchmark, cited from earlier work
# [1] = Tolerability of compounds of formula I, nivolumab and their combination (adverse events); assay type: in vivo, human; conditions: for TRAE Anemia G1-2 / TRAE Anemia G3 / TRAE Anemia G4 / TRAE Diarrhea G1-2 / TRAE Diarrhea G3 / TRAE Diarrhea G4 / TRAE Fatigue G1-2 / TRAE Fatigue G3 / TRAE Fatigue G4 / TRAE Hypophospatemia G1-2 / TRAE Hypophospatemia G3 / TRAE Hypophospatemia G4 / TRAE Lymphocyte decrease G1-2 / TRAE Lymphocyte decrease G3 / TRAE Lymphocyte decrease G4 / TRAE Neutrophil decrease G1-2 / TRAE Neutrophil decrease G3 / TRAE Neutrophil decrease G4 / TRAE Platelet decrease G1-2 / TRAE Platelet decrease G3 / TRAE Platelet decrease G4 / TRAE WBC decrease G1-2 / TRAE WBC decrease G3 / TRAE WBC decrease G4: TRAE >= 5% frequency, by association
# Procedure: The tolerability of the compounds of formula I, nivolumab, and a combination of the compounds of formula I and nivolumab were tested. The Phase 2 clinical dosage of 30 mg BIW of the compounds of formula I was administered.
# [2] = test system: relapsed or refractory peripheral T-cell lymphoma (RR/PTCL); assay: Phase 2 monotherapy in relapsed or refractory peripheral T-cell lymphoma; assay type: in vivo, human
# Procedure: The compounds of formula I were used as a monotherapy for relapsed or refractory peripheral T-cell lymphoma (“RR/PTCL”). A dosage of 40 mg biw was approved for this study. A summary of the results is found in Table 10. […] The time after prior treatment was 96 days (vs. 222 days for romidepsin P2 trial). […] The median PFS (months) was 7.6.
# [3] = test system: relapsed or refractory aggressive adult T-cell lymphoma (RR/ATL); assay: Phase 2 monotherapy in relapsed or refractory aggressive adult T-cell lymphoma; assay type: in vivo, human; conditions: 20 evaluable, 40 mg biw monotherapy
# Procedure: (§1) The compounds of formula I were used as a monotherapy for relapsed or refractory aggressive adult T-cell lymphoma (“RR/ATL”). A dosage of 40 mg biw was approved for this study. A summary of the results is found in Table 12. […] The time after prior treatment was 88 days (vs. 234 days for lenalidomide P2 trial). All patients had received mogamulizumab (“moga”) (lenalidomide ORR in moga patients was 18%).
# RR/ATL [4] = assay: Historical benchmarks for RR/ATL treatments; assay type: in vivo, human; conditions: Phase I, listed among benchmarks
# Procedure: as §1
# [5] = test system: tumor micro-environment (TME); conditions: cited from earlier work
# RR/ATL [6] = conditions: cited from earlier work; for ORR: historical benchmark, RR/ATL
# [7] = 43 evaluable, 40 mg biw monotherapy
# [8] = number of patients, 43 evaluable, 40 mg biw monotherapy
# [9] = less frequent TRAEs associated with NIVO alone
molecule,measurement,setting,value
O=c1[nH]cnc2c([C@@H]3N[C@H](CO)[C@@H](O)[C@H]3O)c[nH]c12 [Forodesine],ORR,RR/PTCL,22%
"Nc1cc(F)ccc1NC(=O)c1ccc(CNC(=O)/C=C/c2cccnc2)cc1 [HBI-8000, N-(2-amino-4-fluorophenyl)-4-[[[(2E)-1-oxo-3-(3-pyridinyl)-2-propen-1-yl]amino]methyl]benzamide]",TRAE Anemia G1-2,[1],14 (22) n (% of N)
same,TRAE Anemia G3,[1],1 (2) n (% of N)
same,TRAE Anemia G4,[1],0 n (% of N)
same,TRAE Diarrhea G1-2,[1],0 n (% of N)
same,TRAE Diarrhea G3,[1],0 n (% of N)
same,TRAE Diarrhea G4,[1],0 n (% of N)
same,TRAE Fatigue G1-2,[1],0 n (% of N)
same,TRAE Fatigue G3,[1],0 n (% of N)
same,TRAE Fatigue G4,[1],0 n (% of N)
same,TRAE Hypophospatemia G1-2,[1],6 (10) n (% of N)
same,TRAE Hypophospatemia G3,[1],4 (6) n (% of N)
same,TRAE Hypophospatemia G4,[1],0 n (% of N)
same,TRAE Lymphocyte decrease G1-2,[1],0 n (% of N)
same,TRAE Lymphocyte decrease G3,[1],0 n (% of N)
same,TRAE Lymphocyte decrease G4,[1],0 n (% of N)
same,TRAE Neutrophil decrease G1-2,[1],8 (13) n (% of N)
same,TRAE Neutrophil decrease G3,[1],5 (8) n (% of N)
same,TRAE Neutrophil decrease G4,[1],1 (2) n (% of N)
same,TRAE Platelet decrease G1-2,[1],23 (37) n (% of N)
same,TRAE Platelet decrease G3,[1],3 (5) n (% of N)
same,TRAE Platelet decrease G4,[1],0 n (% of N)
same,TRAE WBC decrease G1-2,[1],11 (17) n (% of N)
same,TRAE WBC decrease G3,[1],1 (2) n (% of N)
same,TRAE WBC decrease G4,[1],0 n (% of N)
same,share of TRAEs associated with the agent,"[1]; among TRAEs, 63 subjects",39%
same,DCR,[2]; [7],74%
same,ORR,[2]; [7],46%
same,median PFS,"[2]; estimated, PD date by investigator judgement, FIG. 7A",7.6 months
same,Complete Responses,[2]; [8],4
same,Partial Responses,[2]; [8],16
same,Stable Disease,[2]; [8],12
same,DCR,[3],60%
same,ORR,[3],40%
same,Stable Disease,[3]; number of patients,4
same,Partial Responses,"[3]; number of patients, all had received mogamulizumab",8
same,ORR,RR/ATL [4],75%
same,PD-1 and PD-L1 expression,"[5]; ""cold"" tumors",increases
same,apoptosis scores and signatures,[5]; tumor cells,increasing
same,conversion of M2 (suppressive) to M1 (antitumor) macrophages,[5]; tumor micro-environment,promotes
same,influx of CD8+ T cells and NK cells,[5]; tumor micro-environment,increases
same,"number and activity of regulatory T cells (TREGs), myeloid-derived suppressor cells (MDSCs)",[5]; tumor micro-environment,reduces
same,"ratio of active CD8+ effector T cells to ""exhausted"" CD8 T cells",[5]; tumor micro-environment,increases
NIVO: fully human monoclonal antibody directed against PD-1,TRAE Anemia G1-2,[1],0 n (% of N)
same,TRAE Anemia G3,[1],0 n (% of N)
same,TRAE Anemia G4,[1],0 n (% of N)
same,TRAE Diarrhea G1-2,[1],4 (6) n (% of N)
same,TRAE Diarrhea G3,[1],1 (2) n (% of N)
same,TRAE Diarrhea G4,[1],0 n (% of N)
same,TRAE Fatigue G1-2,[1],0 n (% of N)
same,TRAE Fatigue G3,[1],0 n (% of N)
same,TRAE Fatigue G4,[1],0 n (% of N)
same,TRAE Hypophospatemia G1-2,[1],0 n (% of N)
same,TRAE Hypophospatemia G3,[1],0 n (% of N)
same,TRAE Hypophospatemia G4,[1],0 n (% of N)
same,TRAE Lymphocyte decrease G1-2,[1],0 n (% of N)
same,TRAE Lymphocyte decrease G3,[1],0 n (% of N)
same,TRAE Lymphocyte decrease G4,[1],0 n (% of N)
same,TRAE Neutrophil decrease G1-2,[1],0 n (% of N)
same,TRAE Neutrophil decrease G3,[1],0 n (% of N)
same,TRAE Neutrophil decrease G4,[1],0 n (% of N)
same,TRAE Platelet decrease G1-2,[1],0 n (% of N)
same,TRAE Platelet decrease G3,[1],0 n (% of N)
same,TRAE Platelet decrease G4,[1],0 n (% of N)
same,TRAE WBC decrease G1-2,[1],0 n (% of N)
same,TRAE WBC decrease G3,[1],0 n (% of N)
same,TRAE WBC decrease G4,[1],0 n (% of N)
same,TRAE TSH increase,[1]; [9],5 n
same,TRAE amylase increase,[1]; [9],4 n
same,TRAE lipase increase,[1]; [9],6 n
same,TRAE rash,[1]; [9],10 n
Nc1cccc2c1CN(C1CCC(=O)NC1=O)C2=O (centres unmarked) [Lenalidomide],ORR,RR/ATL [6],42%
same,ORR in moga patients,"RR/ATL [6]; patients who had received mogamulizumab, lenalidomide P2 trial",18%
C#CCC(Cc1cnc2nc(N)nc(N)c2n1)c1ccc(C(=O)N[C@@H](CCC(=O)O)C(=O)O)cc1 (some centres unmarked) [Pralatrexate],ORR,RR/PTCL,45%
Nc1cc(F)ccc1NC(=O)c1ccc(CNC(=O)/C=C/c2cccnc2)cc1 [Epidaza],ORR (PMS),"RR/PTCL; value in brackets, PMS",35%
same,ORR,RR/PTCL,28%
"Mogamulizumab: RR/ATL treatment, historical benchmark (antibody, chains of the INN, looked up, V domains shown) VH: EVQLVESGGDLVQPGRSLRLSCAASGFIFSNYGMSWVRQAPGKGLEWVATISSASTYSYYPDSVKGRFTISRDNAKNSLYLQMNSLRVEDTALYYCGRHSDGNFAFGYWGQGTLVTVSS VL: DVLMTQSPLSLPVTPGEPASISCRSSRNIVHINGDTYLEWYLQKPGQSPQLLIYKVSNRFSGVPDRFSGSGSGTDFTLKISRVEAEDVGVYYCFQGSLLPWTFGQGTKVEIK",ORR,RR/ATL [6],50%
